What was measured:
Assay type in all cases: in vivo
[1] = system: Kochia (Kochia scoparia); test: Test A preemergence; details: Bassia scoparia, pre-emergence, 240 h, 0 to 100 scale where 0 is no effect and 100 is complete control, read-out: Kochia plant response rating
Outline: (§1)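 Greenhouse, ~10 d after spray; visual injury vs untreated controls, 0 = no effect, 100 = complete control. Preemergence: directed soil spray over planted seeds. Postemergence: plants 2–10 cm, 1–2 leaf stage. Loam/sand blend. Compound in non-phytotoxic solvent with surfactant.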

[2] = system: barnyardgrass (Echinochloa crus-galli); test: Test A preemergence; details: Echinochloa crus-galli, pre-emergence, 240 h, 0 to 100 scale where 0 is no effect and 100 is complete control, read-out: Barnyardgrass plant response rating
Outline: as §1

[3] = system: giant foxtail (Setaria faberii); test: Test A preemergence; details: Setaria faberi, pre-emergence, 240 h, 0 to 100 scale where 0 is no effect and 100 is complete control, read-out: Foxtail, Giant plant response rating
Outline: as §1

[4] = system: pigweed (Amaranthus retroflexus); test: Test A preemergence; details: Amaranthus retroflexus, pre-emergence, 240 h, 0 to 100 scale where 0 is no effect and 100 is complete control, read-out: Pigweed plant response rating
[5] = system: ragweed (common ragweed, Ambrosia elatior); test: Test A preemergence; details: Ambrosia artemisiifolia, pre-emergence, 240 h, 0 to 100 scale where 0 is no effect and 100 is complete control, read-out: Ragweed plant response rating
Outline: as §1

[6] = system: ryegrass, Italian (Italian ryegrass, Lolium multiflorum); test: Test A preemergence; details: Lolium multiflorum, pre-emergence, 240 h, 0 to 100 scale where 0 is no effect and 100 is complete control, read-out: Ryegrass, Italian plant response rating
Outline: as §1

[7] = system: Galium (catchweed bedstraw, Galium aparine); test: Test A postemergence; details: Galium, post-emergence, 240 h, read-out: Galium plant response rating (0 to 100 scale)
Outline: as §1

[8] = system: Kochia (Kochia scoparia); test: Test A postemergence; details: Bassia scoparia, post-emergence, 240 h, read-out: Kochia plant response rating (0 to 100 scale)
Outline: as §1

[9] = system: barnyardgrass (Echinochloa crus-galli); test: Test A postemergence; details: Echinochloa crus-galli, post-emergence, 240 h, read-out: Barnyardgrass plant response rating (0 to 100 scale)
Outline: as §1

[10] = system: blackgrass (Alopecurus myosuroides); test: Test A postemergence; details: Alopecurus myosuroides, post-emergence, 240 h, read-out: Blackgrass plant response rating (0 to 100 scale)
Outline: as §1

[11] = system: corn (Zea mays); test: Test A postemergence; details: Zea mays, post-emergence, 240 h, read-out: Corn plant response rating (0 to 100 scale)
Outline: as §1

[12] = system: giant foxtail (Setaria faberii); test: Test A postemergence; details: Setaria faberi, post-emergence, 240 h, read-out: Foxtail, Giant plant response rating (0 to 100 scale)
Outline: as §1

[13] = system: pigweed (Amaranthus retroflexus); test: Test A postemergence; details: Amaranthus retroflexus, post-emergence, 240 h, read-out: Pigweed plant response rating (0 to 100 scale)
Outline: as §1

[14] = system: ragweed (common ragweed, Ambrosia elatior); test: Test A postemergence; details: Ambrosia artemisiifolia, post-emergence, 240 h, read-out: Ragweed plant response rating (0 to 100 scale)
Outline: as §1

[15] = system: ryegrass, Italian (Italian ryegrass, Lolium multiflorum); test: Test A postemergence; details: Lolium multiflorum, post-emergence, 240 h, read-out: Ryegrass, Italian plant response rating (0 to 100 scale)
Outline: as §1

[16] = system: wheat (Triticum aestivum); test: Test A postemergence; details: Triticum aestivum, post-emergence, 240 h, Postemergence, 31 g ai/ha; 0 is no effect, 100 is complete control; read-out: Wheat plant response rating (0 to 100 scale)
Outline: as §1

[17] = system: barnyardgrass (Echinochloa crus-galli); test: Test B flooded paddy test; details: Echinochloa crus-galli, 250 g ai/ha, Flood; 0 to 100 scale where 0 is no effect and 100 is complete control; read-out: Barnyardgrass plant response rating
Outline: (§2)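 Evaluation by eye, against controls, occurred 13–15 d post-treatment in a greenhouse, using a 0 (no effect) to 100 (complete control) scale. Application was into the paddy water, 3 cm deep over the soil, on 2-leaf plants.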

[18] = system: ducksalad (Heteranthera limosa); test: Test B flooded paddy test; details: Heteranthera limosa, 250 g ai/ha, Flood; 0 to 100 scale where 0 is no effect and 100 is complete control; read-out: Ducksalad plant response rating
Outline: as §2

[19] = system: rice (Oryra sativa); test: Test B flooded paddy test; details: Oryza sativa, 250 g ai/ha, Flood; 0 to 100 scale where 0 is no effect and 100 is complete control; read-out: Rice plant response rating
Outline: as §2

[20] = system: sedge, umbrella (small-flower umbrella sedge, Cyperus difformis); test: Test B flooded paddy test; details: Cyperus difformis, 250 g ai/ha, Flood; 0 to 100 scale where 0 is no effect and 100 is complete control; read-out: Sedge, Umbrella plant response rating
Outline: as §2

[21] = 125 g ai/ha, preemergence, visual injury rating, approximately 10 d
[22] = 125 g ai/ha, postemergence, visual injury vs untreated controls after approx. 10 d, 0 = no effect, 100 = complete control
[23] = Postemergence, 31 g ai/ha, 0 is no effect, 100 is complete control

Cn1ccc2ccc([C@H]3CNC(=O)[C@@H]3C(=O)Nc3cccc(F)c3F)cc21 [Compound 1263]
pest or weed control at 31 g/ha ([1]; 31 g ai/ha, Preemergence): 0% | pest or weed control at 125 g/ha [1, 21]: 0% | pest or weed control at 31 g/ha ([2]; 31 g ai/ha, Preemergence): 0% | pest or weed control at 125 g/ha [2, 21]: 0% | pest or weed control at 31 g/ha ([3]; 31 g ai/ha, Preemergence): 0% | pest or weed control at 125 g/ha [3, 21]: 0% | pest or weed control at 31 g/ha ([4]; 31 g ai/ha, Preemergence): 0% | pest or weed control at 125 g/ha [4, 21]: 0% | pest or weed control at 31 g/ha ([5]; 31 g ai/ha, Preemergence): 0% | pest or weed control at 125 g/ha [5, 21]: 0% | pest or weed control at 31 g/ha ([6]; 31 g ai/ha, Preemergence): 0% | pest or weed control at 125 g/ha [6, 21]: 0% | pest or weed control at 125 g/ha [7, 22]: 0% | pest or weed control at 31 g/ha [7, 23]: 0% | pest or weed control at 125 g/ha [8, 22]: 0% | pest or weed control at 31 g/ha [8, 23]: 0% | pest or weed control at 125 g/ha [9, 22]: 0% | pest or weed control at 31 g/ha [9, 23]: 0% | pest or weed control at 125 g/ha [10, 22]: 0% | pest or weed control at 31 g/ha [10, 23]: 0% | plant injury at 125 g/ha [11, 22]: 0% | plant injury at 31 g/ha [11, 23]: 0% | pest or weed control at 125 g/ha [12, 22]: 0% | pest or weed control at 31 g/ha [12, 23]: 0% | pest or weed control at 125 g/ha [13, 22]: 0% | pest or weed control at 31 g/ha [13, 23]: 0% | pest or weed control at 125 g/ha [14, 22]: 0% | pest or weed control at 31 g/ha [14, 23]: 0% | pest or weed control at 125 g/ha [15, 22]: 0% | pest or weed control at 31 g/ha [15, 23]: 0% | plant injury at 31 g/ha [16]: 0% | pest or weed control at 250 g/ha [17]: 0% | pest or weed control at 250 g/ha [18]: 30% | pest or weed control at 250 g/ha [19]: 0% | pest or weed control at 250 g/ha [20]: 0%

Reference: patent publication US12077503B2, “Substituted cyclic amides and their use as herbicides” (FMC CORPORATION, priority 2015, dated 2024)
